Tests used:
Assay type in all cases: binding
[1] = tested on: Aβ plaques on AD brain section; experiment: Assay 1: displacement of Compound B on human AD brain sections (fluorescence)
Outline: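 Frozen […] amygdala sections from Braak V-VI AD donors were preincubated with test compound at 250 μM in 50% ethanol for 20 min at room temperature, then with fluorescent Compound B at 1 μM for 20 min. Staining read at 365 nm excitation; plaques quantified by image analysis.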

[2] = tested on: tau tangles/Aβ plaques on AD brain sections; experiment: Assay 1: direct staining of human Alzheimer's disease brain sections (fluorescence); design: key to Direct staining of tau tangles/Aβ plaques on AD brain sections at 100 μM / Direct staining of tau tangles on AD brain sections at 100 μM / Direct staining of Aβ plaques on AD brain sections at 100 μM / Direct staining of tau tangles on AD brain sections (footnote a: at 250 μM): − (No); +++ (strong); ++ (good); + (weak); conditions: tangles; for Direct staining of tau tangles on AD brain sections at 100 μM: 100 μM compound
Outline: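 Frozen […] amygdala sections from Braak V-VI AD donors, PFA-fixed, incubated with compound at 100 μM in 50% ethanol for 20 min at room temperature in the dark. Sudan Black quenched autofluorescence, then staining detected by fluorescence microscopy.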

[3] = tested on: tau tangles on AD brain section; experiment: Assay 1: displacement of RefA on human AD brain sections (fluorescence); conditions: for Selectivity (tau/Abeta): ratio of competition on tau tangles to competition on Aβ plaques
Outline: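 Braak V-VI AD amygdala frozen sections were preincubated with test compound at 250 μM in 50% ethanol for 20 min at room temperature. Fluorescent RefA at 1 μM in 50% ethanol was then added for 20 min, imaged at 470 nm excitation, and tangles were quantified.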

SMILES | Competition on AD brain section Aβ plaques (1 μM Compound B vs 250 μM compound) [1] [%] | Direct staining of tau tangles on AD brain sections at 100 μM [2] | Competition on AD brain section tau tangles (1 μM RefA vs. 250 μM compound) [3] [%] | Selectivity (tau/Abeta) [3] [fold] | Direct staining of tau tangles on AD brain sections (footnote a: at 250 μM) ([2]; 250 μM compound)
Cn1c2ccncc2c2ccc(Nc3ccc(OC(F)F)cc3)nc21 [Example 9] | 0 | ++ (tangles) | 97 | >97 | 
Cn1c2ccncc2c2ccc(Nc3cccc(OCCF)c3)nc21 [Example 8] | 6 | ++ (tangles) | 90 | ~15 | 
Cn1c2ccncc2c2ccc(Nc3ccc(F)c(F)c3)nc21 [Example 2] | 0 |  | 96 | >96 | + (tangles)^a

— US10662193B2, “Carbazole and carboline compounds for use in the diagnosis, treatment, alleviation or prevention of disorders associated with amyloid or amyloid-like proteins” (AC IMMUNE SA, priority 2014, dated 2020)
